{"source": "paper PMC8405639", "about": "“2-Carba-lysophosphatidic acid is a novel β-lysophosphatidic acid analogue with high potential for lysophosphatidic acid receptor activation and autotaxin inhibition” (Scientific Reports, 2021)", "key": {"[1]": {"test_system": "extracellular signal-regulated kinase (ERK) phosphorylation", "assay": "Western blot analysis of phosphorylated ERK in HeLa cells", "format": "cell-based", "details": "HeLa cells, 10 µM, 5 min, 37 °C, western blot", "protocol": "Figure 3 Effects of 2-carba-lysophosphatidic acid (2carbaLPA) on the phosphorylation of the extracellular signal-regulated kinase (ERK) protein. HeLa cells were preincubated with 10 µM Ki16425 for 30 min at 37 °C and then incubated with 10 µM 2carbaLPA, lysophosphatidic acid (LPA) 18:1, or vehicle for 5 min at 37 °C. Protein levels of phosphorylated ERK, total ERK, and α-tubulin were determined by western blot analysis. The full-length blots are shown in the Supplementary Fig. S2.\nHeLa cells were obtained from RIKEN RBC Cell Bank (Tsukuba, Japan). […] Cells were harvested using 0.125 M Tris–HCl (pH 6.8) supplemented with 4% sodium dodecyl sulphate (SDS), 20% glycerol, 10% 2-mercaptoethanol, and 0.01% bromophenol blue. Proteins were separated by SDS–polyacrylamide gel electrophoresis, and the proteins were transferred onto an Immobilon-P Transfer Membrane (Millipore, Burlington, MA, USA). The membrane was incubated with primary antibodies: anti-phospho-ERK (pERK), anti-ERK, and anti-tubulin (all at 1:1,000 dilution, Cell Signaling Technology, Danvers, MA, USA). Next, after washing, the membrane was treated with horseradish peroxidase-conjugated anti-rabbit IgG (1:1000 dilution; Cell Signaling Technology). Immunodetection was performed using an enhanced chemiluminescence system (EzWestLumi plus, ATTO Corporation, Tokyo, Japan) and ImageQuant LAS 4000 (GE healthcare, Buckinghamshire, UK)."}, "[2]": {"assay": "2carbaLPA detection in rat plasma after oral 2ccPA capsule", "format": "in vivo", "details": "oral gastro-resistant (entero-soluble) capsule of 2ccPA, 0-10 h", "text": "Supplementary Figure S5. 2-carba-lysophosphatidic acid (2carbaLPA) produced in rat plasma from rats administered 2-carba-cyclic phosphatidic acid (2ccPA) as a gastro-resistant capsule. Rats were orally administered with 2ccPA containing capsule and 2carbaLPA produced in plasma was detected using liquid chromatography with tandem mass spectrometry (LC-QqQ) and presented as peak area (counts). Data are represented as mean ± standard deviation (n = 5 rat samples).\nPreparation of 2ccPA intended to be administered as a gastro-resistant capsule, administration of the prepared 2ccPA in rats, and extraction of lipids from plasma samples were performed as per previously described methods^1. The experimental protocols were approved by the Animal Research Committee of the Saitama Medical University (approval number; 2113). Briefly, each capsule was filled with 19.70 ± 1.39 mg of 2ccPA and enteric-coated. Male 7-week-old Sprague Dawley rats were orally administrated with a single capsule and blood was collected from the jugular vein using a catheter from 0 to 10 h. Plasma was obtained by mixing with EDTA-Na2 (1 mg/mL), and the lipid fraction was extracted by adding acidic methanol, including LPA 17:0 (final concentration: 100 nM; Avanti Polar Lipids) as internal standard. Analysis for detection of 2carbaLPA with LC-QqQ was performed as above."}, "[3]": {"set-up": "method as in PMID 32298781", "details": "acidic conditions ref 16; cited from earlier work"}, "[4]": {"assay": "cPA analogue stability in the 293A cell medium", "format": "in vitro ADME", "details": "10 µM, 37 °C, 293A (HEK) cell medium", "protocol": "Supplementary Figure S3. Cyclic phosphatidic acid (cPA) analogue stability in the HEK cell medium. Each cPA analogue (final concentration: 10 µM) was incubated with the HEK cell medium for 1 h at 37 °C. The remaining cPA analogue was quantified using liquid chromatography with tandem mass spectrometry (LC-QqQ) and calculated based on the percentage (%) ratio of the final concentration after incubation to the initial concentration. Data are represented as mean ± standard deviation (n = 3 samples).\n293A cells were prepared in Hank’s balanced salt solution (HBSS) in 96-well plates. […] After incubation for 1 h at 37 ℃, 80 µL of the supernatant was collected and mixed with 320 µL of acidic methanol, including LPA 17:0 and cPA 17:0 (final concentration: 0.2 µM each; Avanti Polar Lipids, Alabaster, AL, USA)."}, "[5]": {"test_system": "LPA4", "details": "Ca2+ mobilization, RH7777 and CHO cells, less than 2 min incubation ref 17; cited from earlier work"}, "[6]": {"assay": "Degradation under acidic conditions (artificial gastric juice)", "format": "physicochemical", "details": "artificial gastric juice pH 1.2, 2 h, 37 °C", "protocol": "2ccPA was dissolved in artificial gastric juice (2 g NaCl and 12 M HCl 7 mL/1000 mL water at pH 1.2) at a final concentration of 1 mg/mL and incubated for 2 h at 37 °C. Lipid fraction was extracted by 4 volumes of chloroform/methanol (2:1, v/v) and separated by TLC as per previously reported. Extraction from the silica powder of TLC was performed by addition of 8 mL of chloroform/methanol (1:9, v/v) and it was repeated three times. After filtration (0.2 μm Captiva Premium syringe PTFE filter, Agilent Technologies, Santa Clara, CA, USA), the sample was diluted 100-fold with 5 mM ammonium formate in methanol/water (95:5, v/v) and subjected to QqTOF. The 3ccPA degradation compound was also prepared using the same method. The purity of the degradation compound was confirmed to be more than 95% by TLC, QqTOF, and LC-QqQ. Quantification was performed by weighing the purified sample after dried more than 24 h in the desiccator equipped with a vacuum pump."}}}
{"smiles": "CCCCCCCC/C=C\\CCCCCCCC(=O)OCC(CO)CP(=O)(O)O", "note": "(stereo not drawn) [2carbaLPA 18:1, 2-carba-lysophosphatidic acid]", "values": [{"measurement": "ERK phosphorylation (activation)", "setting": "[1]", "result": "activated ERK"}, {"measurement": "2carbaLPA in plasma after administration of 2ccPA", "setting": "[2]", "result": "detectable"}]}
{"smiles": "CCCCCCCC/C=C\\CCCCCCCC(=O)OCC1COP(=O)(O)C1", "note": "(stereo not drawn) [2ccPA 18:1, 2-carba-cyclic phosphatidic acid]", "values": [{"measurement": "Degradation under acidic conditions", "setting": "[3]", "result": "degraded under acidic conditions"}]}
{"smiles": "CCCCCCCC/C=C\\CCCCCCCC(=O)OC[C@@H](O)CCP(=O)(O)O", "note": "[3carba LPA 18:1, 3-carba-lysophosphatidic acid]", "values": [{"measurement": "Stability during 1 h", "setting": "[4]", "result": "mostly stable"}, {"measurement": "Activity relative to LPA (times weaker), LPA4", "setting": "[5]", "result": "more than 10 times"}]}
{"smiles": "CCCCCCCC/C=C\\CCCCCCCC(=O)OC[C@@H]1CCP(=O)(O)O1", "note": "[3ccPA 18:1, 3-carba-cyclic phosphatidic acid]", "values": [{"measurement": "Conversion under acidic condition", "setting": "[6]", "result": "converted to the corresponding 3-carba-lysophosphatidic acid"}]}
